Measured values published in US20090131422A1, “Salts of an IKK inhibitor” (Millennium Pharmaceuticals, Inc., priority 2007, published 2009).
≈ marks a conversion by molar mass, not a printed value. Counter-ions that a name gives are not always drawn.

Key:
[1] = Gravimetric vapor sorption (GVS); format: physicochemical; conditions: 25° C.
Protocol: Gravimetric Vapor Sorption (GVS): Gravimetric vapor sorption (GVS) data are collected using either i) a SGA-100 Water Vapor Sorption Analyzer from VTI Corporation. Sample sizes are typically 5-10 mg. A moisture adsorption/desorption isotherm is recorded by subjecting samples to a series of relative humidity (RH) steps at a constant temperature of 25° C.; or ii) a Hiden IGASorp moisture sorption analyser running CFRSorp software, IGA Systems Software V3.00.23 and IGASorp Controller Version 1.10. Sample sizes are typically 10 mg. A moisture adsorption/desorption isotherm iserformed in the following way: Samples are loaded/unloaded at typical room humidity and temperature (40% RH, 25° C.) and analysed afterwards by XRPD. The isotherm run is two complete cycles. Each cycle begins at 40% RH and using 10% RH intervals goes to 90% RH then Dry then 40% RH.

[2] = physchem; conditions: water
Protocol: Solubility: The water solubility of the Tartrate and Mono-HCl Salt was measured at ambient temperature.

SMILES: C[C@@H]1CN(C(=O)CN2CC(C)(C)OC[C@H]2C(=O)Nc2cc(Cl)cc3c2[nH]c2cnccc23)C[C@H](C)O1 [Mono-Hydrochloride Salt, (S)—N-(6-chloro-9H-pyrido[3,4-b]indol-8-yl)-4-(2-((2S,6R)-2,6-dimethylmorpholino)-2-oxoethyl)-6,6-dimethylmorpholine-3-carboxamide mono-hydrochloride]
- moisture uptake at 70% RH ([1]; mono-hydrochloride): 0.23%
- moisture uptake at 90% RH ([1]; mono-hydrochloride): 1.7%

SMILES: C[C@@H]1CN(C(=O)CN2CC(C)(C)OC[C@H]2C(=O)Nc2cc(Cl)cc3c2[nH]c2cnccc23)C[C@H](C)O1 [Tartrate Salt, (S)—N-(6-chloro-9H-pyrido[3,4-b]indol-8-yl)-4-(2-((2S,6R)-2,6-dimethylmorpholino)-2-oxoethyl)-6,6-dimethylmorpholine-3-carboxamide hemi-L-tartrate hydrate]
- moisture uptake at 70% RH [1]: 1.3%
- moisture uptake at 90% RH [1]: 2.4%
- hygroscopicity ([1]; vapor sorption profile): relatively non-hygroscopic

SMILES: C[C@@H]1CN(C(=O)CN2CC(C)(C)OC[C@H]2C(=O)Nc2cc(Cl)cc3c2[nH]c2cnccc23)C[C@H](C)O1 [free base, (S)—N-(6-chloro-9H-pyrido[3,4-b]indol-8-yl)-4-(2-((2S,6R)-2,6-dimethylmorpholino)-2-oxoethyl)-6,6-dimethylmorpholine-3-carboxamide]
- solubility [2]: ~10 µg/mL (≈ 19.5 µM)

SMILES: C[C@@H]1CN(C(=O)CN2CC(C)(C)OC[C@H]2C(=O)Nc2cc(Cl)cc3c2[nH]c2cnccc23)C[C@H](C)O1 [Malonate Salt, (S)—N-(6-chloro-9H-pyrido[3,4-b]indol-8-yl)-4-(2-((2S,6R)-2,6-dimethylmorpholino)-2-oxoethyl)-6,6-dimethylmorpholine-3-carboxamide malonate]
- moisture uptake from 40-90% RH ([1]; 40-90% RH): 1.5 wt %
